Legend:
[1] = system: LV mass (cardiac hypertrophy) of aorta-constricted CD-1 mice; assay: Effect on LV mass in aorta-constricted mice (Example 3); format: in vivo
Description: Male CD-1 mice (n=7 per group), 20-25 g in weight, were used for the experiment. Each mouse was anaesthetized with isoflurane 1-2%. Each mouse's aorta was exposed between the two renal arteries and was surgically constricted using a 30-gauge needle and 6.0 suture to induce heart growth. Seven days after surgery, baseline echocardiography was performed on each mouse to establish left ventricular mass (“LV mass”). Enalapril, the gold standard in treating cardiac hypertrophy, was orally administered to the mice at the dose of 10 mg/kg beginning on day 11 (4 days after baseline) and was continued once daily for 10 days. The compound of Formula IIa was suspended in 0.5% methylcellulose (MC) solution (vehicle) and was orally administered to the mice at the doses of 10 mg/kg twice a day, beginning on day 11. The control group was administered with vehicle (0.5% MC) beginning on day 11. Repeat echocardiography was conducted on each mouse 14 and 21 days after surgery.

[2] = system: LV mass (cardiac hypertrophy) of aorta-constricted CD-1 mice; assay: Effect on LV mass in aorta-constricted mice, dose range (Example 4); format: in vivo; set-up: unit not given here
Description: Male CD-1 mice (n=7 per group), 20-25 g in weight, were used for the experiment. Each mouse was anaesthetized with isoflurane 1-2%. Each mouse's aorta was exposed between the two renal arteries and was surgically constricted using a 30-gauge needle and 6.0 suture to induce heart growth. Seven days after surgery, baseline echocardiography was performed on each mouse to establish left ventricular mass (“LV mass”). Enalapril was orally administered to the mice at the dose of 10 mg/kg beginning on day 11 (4 days after baseline) and was continued once daily for 10 days. Formula IIa, suspended in 0.5% MC (vehicle), was orally administered to the mice at the doses of 3.0 mg/kg, 10 mg/kg, or 30 mg/kg once a day beginning on day 11. Formula Ia, suspended in 0.5% MC (vehicle), was orally administered to the mice at the dose of 50 mg/kg once a day beginning on day 11. The control group was administered with vehicle (0.5% MC). Repeat echocardiography was conducted on each mouse 14 and 21 days after surgery.

[3] = molecular target: T1, LXRβ protein (Homo sapiens, UniProt P55055); conditions: 1 μM; over a background reading of 10000 fluorescence units; cited from earlier work
T1 sequence (P55055 1-460): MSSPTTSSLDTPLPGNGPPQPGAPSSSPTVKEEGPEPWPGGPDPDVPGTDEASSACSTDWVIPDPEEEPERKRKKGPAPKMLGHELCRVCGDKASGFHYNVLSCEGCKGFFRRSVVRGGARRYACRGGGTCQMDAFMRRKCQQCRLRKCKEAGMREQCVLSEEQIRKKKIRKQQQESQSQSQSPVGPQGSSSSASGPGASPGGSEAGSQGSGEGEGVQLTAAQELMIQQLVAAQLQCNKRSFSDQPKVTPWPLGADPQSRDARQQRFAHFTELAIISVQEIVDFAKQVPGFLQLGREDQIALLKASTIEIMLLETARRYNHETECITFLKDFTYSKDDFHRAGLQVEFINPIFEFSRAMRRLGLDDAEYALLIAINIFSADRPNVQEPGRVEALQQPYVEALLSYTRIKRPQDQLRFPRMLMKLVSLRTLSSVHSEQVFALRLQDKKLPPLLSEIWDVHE

Question: What does the source list for `CCOC(=O)[C@H](CCc1ccccc1)N[C@@H](C)C(=O)N1CCC[C@H]1C(=O)O` [Enalapril, reference compound]?
Answer: Mean ± SE LV Mass ([1]; 10 mg/kg once daily oral from day 11, 14 days after surgery): 84.90 ± 1.11; LV Mass compared to vehicle ([1]; 10 mg/kg once daily oral, days 14 and 21, p<0.05): significantly (p<0.05) reduced LV Mass; LV Mass compared to baseline hypertrophy (reversal of pathology) ([1]; 10 mg/kg once daily oral, p<0.05): significantly (p<0.05) reversed the pathology; Mean ± SE LV Mass ([1]; Enalapril group 10 mg/kg once daily oral, 7 days after surgery (baseline, before dosing from day 11)): 94.09 ± 1.950; Mean ± SE LV Mass ([2]; Enalapril 10 mg/kg once daily oral from day 11, 14 days after surgery): 95.1 ± 3.90; Mean ± SE LV Mass ([2]; Enalapril 10 mg/kg once daily oral from day 11, 21 days after surgery): 91.4 ± 2.48; Mean ± SE LV Mass ([2]; Enalapril group 10 mg/kg once daily oral, 7 days after surgery (baseline, before dosing)): 101.02 ± 2.79

Question: Which “Mean ± SE LV Mass” value ([2]; 50 mg/kg once a day oral from day 11, 14 days after surgery) does the source give for `O=S(=O)(c1ccccc1)N(CC(F)(F)F)c1ccc(C(O)(C(F)(F)F)C(F)(F)F)cc1` [Formula Ia, N-(2,2,2-Trifluoroethyl)-N-[4-(2,2,2-Trifluoro-1-Hydroxy-1-Trifluoromethyl-Ethyl)-Phenyl]-Benzenesulfonamide] here?
Answer: 106.56 ± 3.86

Question: What about the “Mean ± SE LV Mass” value ([2]; 50 mg/kg once a day oral group, 7 days after surgery (baseline, before dosing)) of the same compound?
Answer: 101.85 ± 4.75

Question: Which “reading (fluorescence)” value [3] does the source give for `C[C@H](CC[C@@H]1OC1(C)C)[C@H]1CC[C@H]2[C@@H]3CC=C4C[C@@H](O)CC[C@]4(C)[C@H]3CC[C@]12C` [24(S), 25-epoxycholesterol] here?
Answer: 20000 fluorescence units

Question: What does the source list for `O=C(O)Cc1cccc(OCCCN(Cc2cccc(C(F)(F)F)c2Cl)CC(c2ccccc2)c2ccccc2)c1` [Formula IIa, 2-(3-{3-[[2-Chloro-3-(Trifluoromethyl)Benzyl](2,2-Diphenylethyl)Amino]Propoxy}-Phenyl)Acetic Acid]?
Answer: Mean ± SE LV Mass ([1]; 10 mg/kg BID oral from day 11, 14 days after surgery): 99.45 ± 1.98; Mean ± SE LV Mass ([1]; 10 mg/kg BID oral from day 11, 21 days after surgery): 100.66 ± 2.43; further increase in LV Mass ([1]; 10 mg/kg b.i.d. oral): prevented any further increase in LV Mass; LV Mass compared to vehicle ([1]; 10 mg/kg b.i.d. oral, 14 and 21 days after surgery, p<0.05): statistically significant reduction; Mean ± SE LV Mass ([1]; Formula IIa group 10 mg/kg BID oral, 7 days after surgery (baseline, before dosing from day 11)): 100.88 ± 2.77; Mean ± SE LV Mass ([2]; 3 mg/kg once a day oral from day 11, 14 days after surgery): 106.75 ± 2.43; Mean ± SE LV Mass ([2]; 3 mg/kg once a day oral from day 11, 21 days after surgery): 106.54 ± 2.56; Mean ± SE LV Mass ([2]; 3 mg/kg once a day oral group, 7 days after surgery (baseline, before dosing)): 98.9 ± 4.59; Mean ± SE LV Mass ([2]; 10 mg/kg once a day oral from day 11, 14 days after surgery): 96.31 ± 2.70; Mean ± SE LV Mass ([2]; 10 mg/kg once a day oral from day 11, 21 days after surgery): 95.5 ± 2.97; Mean ± SE LV Mass ([2]; 10 mg/kg once a day oral group, 7 days after surgery (baseline, before dosing)): 98.01 ± 2.39; Mean ± SE LV Mass ([2]; 30 mg/kg once a day oral from day 11, 14 days after surgery): 101.77 ± 2.25; Mean ± SE LV Mass ([2]; 30 mg/kg once a day oral from day 11, 21 days after surgery): 101.99 ± 4.00; Mean ± SE LV Mass ([2]; 30 mg/kg once a day oral group, 7 days after surgery (baseline, before dosing)): 102.42 ± 2.27

From US20060189693A1, “Methods of treatment with lxr agonists” (priority 2003, published 2006)
